In US20240368174A1, “Antiviral Heterocyclic Compounds” (Enanta Pharmaceuticals, Inc., priority 2023, published 2024):
pEC50: −log10 of the molar value.

Tested on: HMPV clinical isolate A2 strain TN 94-49
Assay: HMPV antiviral assay, Method 2 (LLC-MK2 cells with CP-100-356, ATP-Lite)
Type: cell-based
Details: human metapneumovirus, 168 h; hMPV A2 TN/94-49, LLC-MK2 cells with 4 μM CP-100-356, 7 days, ATP-Lite
Procedure: In vitro HMPV antiviral activity was evaluated using the clinical isolate A2 strain TN 94-49 (obtained from Dr. John Williams, Vanderbilt University, Tennessee) and LLC-MK2 cells (Millipore Sigma CB_85062804), an immortalized kidney epithelial cell line from Macaca mulatta. Compounds were resuspended in dimethyl sulfoxide (DMSO) at 10 mM, serially diluted and added to a 384-well source plate. Subsequently, the compounds were diluted and transferred onto 384-well assay plates using the Echo-650 automated liquid handling system (Beckman Coulter, Indiana). The test compounds were assessed in duplicate at a top concentration of 200 nM followed by 2.5-fold serial dilutions to give a total of 10 concentration points. DMSO control wells were also included on the assay plates and were either infected or not, acting as positive and negative controls. A2 TN 94-49 virus infections were performed in-suspension with LLC-MK2 cells. The cells were washed twice with PBS and removed from the cell-culture flask with 0.25% trypsin-EDTA (Thermo Fisher Scientific, MA). The trypsin-EDTA was inactivated by resuspending in 2% fetal bovine serum (FBS) and OptiMEM (ThermoFisher Scientific, MA) containing 1% antibiotic-antimycotic. Cells were pelleted by centrifuging for 5 minutes at 800 rpm, the supernatant was removed, and cells were re-suspended and washed in PBS plus 100 μg/mL CaCl2). This step was performed twice. Cells were then re-suspended in serum-free (SF)-OptiMEM containing 4 μg/mL TPCK-Trypsin (Sigma Aldrich, MO), 1% antibiotic-antimycotic (ThermoFisher Scientific, MA), 100 μg/mL CaCl2), and 4 μM of CP-100-356, a P-glycoprotein inhibitor. Cells were counted and seeded at a density of 5,000 cells/well, 12.5 μL/well. Virus infections were done at a multiplicity of infection (MOI) of 0.16 with 12.5 μL added per well. Virus infections were performed in infection media which contained SF-OptiMEM, 100 μg/mL CaCl2) and 1% antibiotic-antimycotic. HMPV viral stocks are suspended in infection media+5% glycerol, thus an equal volume of infection media+5% glycerol was added to uninfected wells to equalize the final % glycerol across all wells of the assay plate. The final concentration of TPCK-trypsin was 2 μg/mL. The final concentration of CP-100-356 was 2 μM. The assay plates were incubated at 37° C., 5% CO2 for 7 days. After 7 days incubation, 12.5 μL of ATP-Lite (PerkinElmer, MA) was added to each well and the raw luminescence values were determined using the Envision 2104 (Perkin Elmer, MA). The average of the raw luminescence values for the cells and virus only positive control wells was subtracted from all conditions tested and the percent cell health was determined by dividing these values by the average of the cells only negative control wells. EC50 values were then calculated by non-linear regression using a four-parameter curve logistic equation. The curve fit model employed was XLFit Dose Response One Site Model 200: y=(A+(B/(1+((x/C)^D)))), where A is the minimum y value, B is the maximum y value, C is the log EC50 value, and D is the slope factor.

Row | SMILES | pEC50
1 | COc1cc(C(=O)NC[C@@](O)(c2ccc(F)cc2)c2cc3c(c(-c4ccnc(C)c4Cl)n2)OC[C@]3(C)C(N)=O)cc2cn(C3(F)CC3)nc12 [Example 647] | > 6.70
2 | COc1nccc(-c2nc([C@@](O)(CNC(=O)c3cc(OC4CC4)c4nn(C(F)F)cc4c3)c3cccc(F)c3)cc3c2OC[C@]3(C)C(N)=O)c1Cl [Example 902] | < 6.70
3 | COc1cc(-c2nc([C@@](O)(CNC(=O)c3cc(OC)c4nn(C5CC5)cc4c3)C(F)(F)F)cc3c2OC[C@]3(C)C(N)=O)c(F)cn1 [Example 831] | < 6.70
4 | COc1cc(C(=O)NC[C@](O)(c2cc3c(c(-c4ccnc(OC(C)C)c4Cl)n2)OC[C@]3(C)C(N)=O)C2CC2)cc2cn(C3CC3)nc12 [Example 806] | < 6.70
5 | COc1cc(C(=O)NC[C@](O)(c2cc3c(c(-n4cc5cc(F)ccc5n4)n2)OC[C@]3(C)C(N)=O)C2CC2)cc2cn(C3CC3)nc12 [Example 719] | < 6.70
6 | COc1cc(C(=O)NC[C@](O)(c2cc3c(c(-c4cc(C(F)(F)F)ncc4F)n2)OC[C@]3(C)C(N)=O)C(F)(F)F)cc2cn(C3CC3)nc12 [Example 845] | > 6.70
7 | COc1cc(C(=O)NC[C@@](O)(c2ccccc2)c2cc3c(c(-n4ncc5c(F)cccc54)n2)OC[C@]3(C)C(N)=O)cn2cc(C3CC3)nc12 [Example 634] | > 6.70
8 | CC(C)c1nccc(-c2nc([C@@](O)(CNC(=O)c3cc(OC4CC4)c4nn(C(F)F)cc4c3)C3CC3)cc3c2OC[C@]3(C)C(N)=O)c1Cl [Example 914] | < 6.70
9 | COc1cc(C(=O)NC[C@](O)(c2cc3c(c(-n4ncc5c(F)cccc54)n2)OC[C@]3(C)C(N)=O)C(F)(F)F)cc2oc(C3CC3)nc12 [Example 836] | < 6.70
10 | COc1cc(C(=O)NC[C@](O)(c2cc3c(c(-n4ccc5cnccc54)n2)OC[C@]3(C)C(N)=O)C2CC2)cc2cn(C3CC3)nc12 [Example 841] | > 6.70

More lines, now with the values ahead:

Row | pEC50 | SMILES
11 | > 6.70 | COc1cc(C(=O)NC[C@](O)(c2cc3c(c(-n4ncc5c(F)cccc54)n2)OC[C@]3(C)C(N)=O)C2CC2)cc2cc(C3CC3)nn12 [Example 626]
12 | > 6.70 | COc1cc(C(=O)NC[C@@](O)(c2ccccc2)c2cc3c(c(-c4ccnc(F)c4Cl)n2)OC[C@]3(C)C(N)=O)cc2cn(C(F)F)nc12 [Example 663]
13 | < 6.70 | COc1cc(-c2nc([C@@](O)(CNC(=O)c3cc(OC4CC4)c4nn(C5CC5)cc4c3)c3ccccc3)cc3c2OC[C@]3(C)C(N)=O)c(F)cn1 [Example 900]

Same assay, conditions: human metapneumovirus; hMPV A2 TN/94-49, LLC-MK2 cells with CP-100-356, Method 2

Row | SMILES | pEC50
14 | COc1nccc(-c2nc([C@@](O)(CNC(=O)c3cc(OC4CC4)c4nn(C5(F)CC5)cc4c3)C3CC3)cc3c2OC[C@]3(C)C(N)=O)c1Cl [Example 592] | > 6.70
15 | C[C@]1(C(N)=O)COc2c1cc([C@@](O)(CNC(=O)c1ccc3nc(C4CC4)oc3c1)c1cccc(F)c1)nc2-c1ccc(F)c(Cl)c1Cl [Example 312] | > 6.70
16 | COc1cc(C(=O)NC[C@](O)(c2cccc(F)c2)c2cc3c(c(-c4cc(C(F)(F)F)ncc4F)n2)OC[C@]3(C)C(N)=O)cc2cn(C3CC3)nc12 [Example 409] | < 6.70
17 | Cc1nc2c(OC(F)F)cc(C(=O)NC[C@](O)(c3cc4c(c(-c5cc(Cl)c(F)cc5F)n3)OC[C@]4(C)C(N)=O)c3ccccc3F)cc2cc1Br [Example 139] | < 6.70
18 | COc1cc(C(=O)NC[C@@](O)(c2ccc(F)cc2)c2cc3c(c(-c4ccnc(C(F)(F)F)c4F)n2)OC[C@]3(C)C(N)=O)cc2oc(C3CC3)nc12 [Example 574] | > 6.70
19 | COc1cc(C(=O)NC[C@](O)(c2cc3c(c(-c4ccnc(F)c4C)n2)OC[C@]3(C)C(N)=O)C2CC2)cc2cn(C3CC3)nc12 [Example 383] | > 6.70
20 | COc1cc(C(=O)NC[C@@](O)(c2ccc(F)cc2)c2cc3c(c(-c4ccnc(C(F)(F)F)c4F)n2)OC[C@]3(C)C(N)=O)cc2oc(C(F)F)nc12 [Example 541] | > 6.70
21 | COc1cc(C(=O)NC[C@](O)(c2cc3c(c(-c4cc(Cl)c(F)cc4F)n2)OC[C@]3(C)C(N)=O)C2CC2)cc(O)c1NC(=O)C1(F)CC1 [Example 236] | < 6.70
22 | COc1cc(C(=O)NC[C@](O)(c2cc3c(c(-c4ccnc(C(F)F)c4Cl)n2)OC[C@]3(C)C(N)=O)C(F)(F)F)cc2oc(C(F)F)nc12 [Example 552] | > 6.70
23 | COc1cc(C(=O)NC[C@](O)(c2cc3c(c(-c4ccnc(C(F)(F)F)c4Cl)n2)OC[C@]3(C)C(N)=O)C(F)(F)F)cc2sc(C)nc12 [Example 537] | > 6.70
24 | COc1cc(C(=O)NC[C@](O)(c2cc3c(c(-c4ccnc(F)c4Cl)n2)OC[C@]3(C)C(N)=O)C2CC2)cc2oc(C3CC3)nc12 [Example 208] | > 6.70
25 | COc1cc(C(=O)NC[C@](O)(c2cc3c(c(-c4ccnc(F)c4Cl)n2)OC[C@]3(C)C(N)=O)C2CC2)cc2cn(C3(F)CC3)nc12 [Example 209] | > 6.70

More lines, now with the values ahead:

Row | pEC50 | SMILES
26 | > 6.70 | COc1cc(C(=O)NC[C@@](O)(c2cnc(C3CC3)nc2)c2cc3c(c(-c4cc(Cl)c(F)cc4F)n2)OC[C@]3(C)C(N)=O)cc2cn(C3CC3)nc12 [Example 478]
27 | > 6.70 | COc1cc(C(=O)NC[C@@](O)(c2ccccc2)c2cc3c(c(-c4cccc(F)c4Cl)n2)OC[C@]3(C)C(N)=O)cc2cn(C3(F)CC3)nc12 [Example 368]
28 | > 6.70 | COc1nccc(-c2nc([C@@](O)(CNC(=O)c3cc(OC4CC4)n4nc(C5CC5)cc4c3)C(F)(F)F)cc3c2OC[C@]3(C)C(N)=O)c1Cl [Example 607]
29 | > 6.70 | C[C@]1(C(N)=O)COc2c1cc([C@@](O)(CNC(=O)c1cc(OC3CC3)c3ncc(Cl)cc3c1)C1CC1)nc2-c1cc(F)c(F)cc1F [Example 104]
30 | > 6.70 | COc1cc(C(=O)NC[C@](O)(c2cc3c(c(-c4cc(C(F)(F)F)ncc4F)n2)OC[C@]3(C)C(N)=O)C2CC2)cc2cc(C3CC3)nn12 [Example 354]
31 | > 6.70 | COc1cc(C(=O)NC[C@](O)(c2cc3c(c(-c4cc(Cl)c(F)cc4F)n2)OC[C@]3(C)C(N)=O)c2ccn(C)n2)cc2cn(C3CC3)nc12 [Example 480]
32 | > 6.70 | COc1cc(C(=O)NC[C@@](O)(c2cnccn2)c2cc3c(c(-c4cc(Cl)c(F)cc4F)n2)OC[C@]3(C)C(N)=O)cc2cn(C3CC3)nc12 [Example 487]
33 | > 6.70 | C[C@]1(C(N)=O)COc2c1cc([C@@](O)(CNC(=O)c1cc(Cl)c3nn(C4CC4)cc3c1)c1ccccc1)nc2-c1cc(Cl)c(F)cc1F [Example 99]
34 | > 6.70 | Cc1nccc(-c2nc([C@@](O)(CNC(=O)c3cc(OC4CC4)c4nn(C5(F)CC5)cc4c3)c3cccc(F)c3)cc3c2OC[C@]3(C)C(N)=O)c1Cl [Example 605]
35 | > 6.70 | COc1cc(C(=O)NC[C@@](O)(c2ccccc2)c2cc3c(c(-c4ccnc(F)c4Cl)n2)OC[C@]3(C)C(N)=O)cc2cn(C(F)F)nc12 [Example 358]
36 | > 6.70 | COc1cc(C(=O)NC[C@@](O)(c2cccc(F)n2)c2cc3c(c(-c4cc(Cl)c(F)cc4F)n2)OC[C@]3(C)C(N)=O)cc2cc(C3CC3)nn12 [Example 206]
37 | > 6.70 | COc1cc(C(=O)NC[C@@](O)(c2cccc(C#N)c2)c2cc3c(c(-c4cc(Cl)c(F)cc4F)n2)OC[C@]3(C)C(N)=O)cc2cn(C3CC3)nc12 [Example 488]
38 | > 6.70 | C[C@]1(C(N)=O)COc2c1cc([C@@](O)(CNC(=O)c1cc(OC3CC3)n3nc(C4CC4)cc3c1)c1ccccc1)nc2-c1cc(Cl)c(F)cc1F [Example 191]
39 | > 6.70 | COc1c(F)ccc(-c2nc([C@@](O)(CNC(=O)c3cc(OC)c4nn(C5(F)CC5)cc4c3)c3ccccc3)cc3c2OC[C@]3(C)C(N)=O)c1Cl [Example 375]
